In publication PMC4835124 (Drug Design, Development and Therapy, 2016):
Like-named read-outs stand apart in the source and are kept apart here.

How the values were obtained:
[1] = multiple dosing, 5–20 mg dose range, healthy volunteers; cited from earlier work
[2] = Comparative pharmacokinetic study; details: for CL/F: fasting, n=35, mean ± SD; for Tmax: po
Food effect study = assay type: in vivo, human; details: for CL/F: Part 2, FDC_EVO5/MET1000 single oral dose, n=27, mean ± SD
[3] = single administration in healthy volunteers; cited from earlier work
[4] = Part 1, EVO+MET (individual tablets) single oral dose
[5] = Part 1, FDC_EVO5/MET1000 single oral dose, plasma

Row | CL/F [2, 4] [L/h] | CL/F [2, 5] [L/h] | Tmax ([2]; male, human, in vivo) [h] | half-life ([2]; male, human, in vivo, terminal half-life, present study) [h] | intrasubject variability in CL/F ([2]; present study) | CL/F (Food effect study; Fasted) [L/h] | CL/F (Food effect study; Fed) [L/h] | effect of food on pharmacokinetics (Food effect study; single oral dose of FDC_EVO5/MET1000, fed vs fasted) | increase of AUClast under the fed condition compared to the fasted condition (Food effect study; FDC_EVO5/MET1000 single oral dose) | Compound | dose linearity of pharmacokinetics [1] | effect of food on pharmacokinetics [3] | half-life [3] [h]
1 | 28.56 ± 8.64 | 28.81 ± 9.19 | 5 | > 24 | around 10.0% | 25.05 ± 6.68 | 23.76 ± 5.07 | did not significantly affect | – | CC(C)(C)OC[C@@H]1C(=O)NCCN1C(=O)C[C@H](N)Cc1cc(F)c(F)cc1F [Evogliptin, evogliptin] | linear pharmacokinetics | not affected by food | ≥ 30
2 | 126.15 ± 35.21 | 126.82 ± 38.28 | 4 | – | – | 112.95 ± 28.61 | 78.76 ± 20.56 | – | 36%–60% | CN(C)C(=N)N=C(N)N [Metformin, metformin] | – | – | –
